Experimental data published in PubChem BioAssay (NCI).
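These data come from cells grown in 96-well plates and exposed to compound for 48 hours at five concentrations. Here, GI50 denotes the concentration required for 50% inhibition of growth. TGI is the concentration that stops growth completely.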

Tests used:
Experiment in all cases: NCI tumour cell line growth inhibition, 48 h
UACC-257 melanoma = tested on: UACC-257 melanoma
HT29 colon = tested on: HT29 colon
OVCAR-5 ovarian = tested on: OVCAR-5 ovarian
LOX IMVI melanoma = tested on: LOX IMVI melanoma
A549 NSCLC = tested on: A549 NSCLC
OVCAR-3 ovarian = tested on: OVCAR-3 ovarian
SNB-19 CNS = tested on: SNB-19 CNS
NCI/ADR-RES ovarian = tested on: NCI/ADR-RES ovarian
SK-OV-3 ovarian = tested on: SK-OV-3 ovarian
HL-60(TB) leukemia = tested on: HL-60(TB) leukemia
EKVX NSCLC = tested on: EKVX NSCLC
NCI-H522 lung = tested on: NCI-H522 lung
SR leukemia = tested on: SR leukemia
CAKI-1 renal = tested on: CAKI-1 renal
A498 renal = tested on: A498 renal
ACHN renal = tested on: ACHN renal
RPMI-8226 leukemia = tested on: RPMI-8226 leukemia
UACC-62 melanoma = tested on: UACC-62 melanoma
IGROV1 ovarian = tested on: IGROV1 ovarian
MDA-MB-435 = tested on: MDA-MB-435
SK-MEL-5 melanoma = tested on: SK-MEL-5 melanoma
KM12 colon = tested on: KM12 colon
HS 578T breast = tested on: HS 578T breast
MDA-MB-231 breast = tested on: MDA-MB-231 breast
DU-145 prostate = tested on: DU-145 prostate
MCF7 breast = tested on: MCF7 breast
SF-268 CNS = tested on: SF-268 CNS
SK-MEL-2 melanoma = tested on: SK-MEL-2 melanoma
RXF 393 renal = tested on: RXF 393 renal
SNB-75 CNS = tested on: SNB-75 CNS
HOP-92 NSCLC = tested on: HOP-92 NSCLC
MOLT-4 leukemia = tested on: MOLT-4 leukemia
CCRF-CEM leukemia = tested on: CCRF-CEM leukemia
SW-620 colon = tested on: SW-620 colon
HOP-62 NSCLC = tested on: HOP-62 NSCLC
SK-MEL-28 melanoma = tested on: SK-MEL-28 melanoma
NCI-H460 lung = tested on: NCI-H460 lung
TK-10 renal = tested on: TK-10 renal
HCT-116 colon = tested on: HCT-116 colon
COLO 205 colon = tested on: COLO 205 colon
NCI-H226 lung = tested on: NCI-H226 lung
K-562 leukemia = tested on: K-562 leukemia
SN12C renal = tested on: SN12C renal
HCC-2998 colon = tested on: HCC-2998 colon
BT-549 breast = tested on: BT-549 breast
786-0 renal = tested on: 786-0 renal
U251 CNS = tested on: U251 CNS
HCT-15 colon = tested on: HCT-15 colon
SF-539 CNS = tested on: SF-539 CNS
OVCAR-4 ovarian = tested on: OVCAR-4 ovarian
PC-3 prostate = tested on: PC-3 prostate
OVCAR-8 ovarian = tested on: OVCAR-8 ovarian
T-47D breast = tested on: T-47D breast
NCI-H23 lung = tested on: NCI-H23 lung
M14 melanoma = tested on: M14 melanoma
SF-295 CNS = tested on: SF-295 CNS

O=C(Nc1cc(C(F)(F)F)ccc1Cl)c1ccc(NC2=C(Cl)C(=O)N(Cc3ccccc3)C2=O)cc1
GI50 (UACC-257 melanoma): 31.7 µM | TGI (UACC-257 melanoma): 96.9 µM | GI50 (HT29 colon): 26.6 µM | TGI (HT29 colon): > 100 µM | GI50 (OVCAR-5 ovarian): > 100 µM | TGI (OVCAR-5 ovarian): > 100 µM | GI50 (LOX IMVI melanoma): 4.11 µM | TGI (LOX IMVI melanoma): > 100 µM | GI50 (A549 NSCLC): > 100 µM | TGI (A549 NSCLC): > 100 µM | GI50 (OVCAR-3 ovarian): 19.1 µM | TGI (OVCAR-3 ovarian): 46.1 µM | GI50 (SNB-19 CNS): 30.4 µM | TGI (SNB-19 CNS): > 100 µM | GI50 (NCI/ADR-RES ovarian): 62.7 µM | TGI (NCI/ADR-RES ovarian): > 100 µM | GI50 (SK-OV-3 ovarian): > 100 µM | TGI (SK-OV-3 ovarian): > 100 µM | GI50 (HL-60(TB) leukemia): 3.08 µM | TGI (HL-60(TB) leukemia): 9.33 µM | GI50 (EKVX NSCLC): 46.6 µM | TGI (EKVX NSCLC): > 100 µM | GI50 (NCI-H522 lung): 11.1 µM | TGI (NCI-H522 lung): 28 µM | GI50 (SR leukemia): 1300 nM | TGI (SR leukemia): 4.4 µM | GI50 (CAKI-1 renal): 42.6 µM | TGI (CAKI-1 renal): > 100 µM | GI50 (A498 renal): 69.9 µM | TGI (A498 renal): > 100 µM | GI50 (ACHN renal): 23.8 µM | TGI (ACHN renal): 64.9 µM | GI50 (RPMI-8226 leukemia): 2650 nM | TGI (RPMI-8226 leukemia): 8.51 µM | GI50 (UACC-62 melanoma): 16.7 µM | TGI (UACC-62 melanoma): 38.9 µM | GI50 (IGROV1 ovarian): 1990 nM | TGI (IGROV1 ovarian): 6.41 µM | GI50 (MDA-MB-435): 29.5 µM | TGI (MDA-MB-435): > 100 µM | GI50 (SK-MEL-5 melanoma): 18.6 µM | TGI (SK-MEL-5 melanoma): 60.4 µM | GI50 (KM12 colon): 23.7 µM | TGI (KM12 colon): 74.9 µM | GI50 (HS 578T breast): 31.9 µM | TGI (HS 578T breast): > 100 µM | GI50 (MDA-MB-231 breast): 18.8 µM | TGI (MDA-MB-231 breast): 69.2 µM | GI50 (DU-145 prostate): 26.9 µM | TGI (DU-145 prostate): 80.9 µM | GI50 (MCF7 breast): 11.6 µM | TGI (MCF7 breast): > 100 µM | GI50 (SF-268 CNS): 32.7 µM | TGI (SF-268 CNS): > 100 µM | GI50 (SK-MEL-2 melanoma): 18.6 µM | TGI (SK-MEL-2 melanoma): 40.6 µM | GI50 (RXF 393 renal): 23.7 µM | TGI (RXF 393 renal): 73 µM | GI50 (SNB-75 CNS): 56.1 µM | TGI (SNB-75 CNS): > 100 µM | GI50 (HOP-92 NSCLC): 15.7 µM | TGI (HOP-92 NSCLC): 56.3 µM | GI50 (MOLT-4 leukemia): 3.53 µM | TGI (MOLT-4 leukemia): 77.7 µM | GI50 (CCRF-CEM leukemia): 1420 nM | TGI (CCRF-CEM leukemia): 11.7 µM | GI50 (SW-620 colon): 6.72 µM | TGI (SW-620 colon): > 100 µM | GI50 (HOP-62 NSCLC): > 100 µM | TGI (HOP-62 NSCLC): > 100 µM | GI50 (SK-MEL-28 melanoma): 23.9 µM | TGI (SK-MEL-28 melanoma): 63.5 µM | GI50 (NCI-H460 lung): 34.3 µM | TGI (NCI-H460 lung): > 100 µM | GI50 (TK-10 renal): 24.7 µM | TGI (TK-10 renal): 62.3 µM | GI50 (HCT-116 colon): 17.2 µM | TGI (HCT-116 colon): > 100 µM | GI50 (COLO 205 colon): 16 µM | TGI (COLO 205 colon): 35.6 µM | GI50 (NCI-H226 lung): 13.9 µM | TGI (NCI-H226 lung): 65.5 µM | GI50 (K-562 leukemia): 3.67 µM | TGI (K-562 leukemia): 19.6 µM | GI50 (SN12C renal): 19.6 µM | TGI (SN12C renal): 61.2 µM | GI50 (HCC-2998 colon): 5.28 µM | TGI (HCC-2998 colon): 9.11 µM | GI50 (BT-549 breast): 15 µM | TGI (BT-549 breast): 39.7 µM | GI50 (786-0 renal): 23.4 µM | TGI (786-0 renal): > 100 µM | GI50 (U251 CNS): 22.6 µM | TGI (U251 CNS): > 100 µM | GI50 (HCT-15 colon): 13.2 µM | TGI (HCT-15 colon): > 100 µM | GI50 (SF-539 CNS): 28.9 µM | TGI (SF-539 CNS): 77.5 µM | GI50 (OVCAR-4 ovarian): 47.4 µM | TGI (OVCAR-4 ovarian): > 100 µM | GI50 (PC-3 prostate): 14.8 µM | TGI (PC-3 prostate): 37.8 µM | GI50 (OVCAR-8 ovarian): 14.6 µM | TGI (OVCAR-8 ovarian): 41.3 µM | GI50 (T-47D breast): 14.1 µM | TGI (T-47D breast): > 100 µM | GI50 (NCI-H23 lung): 18.9 µM | TGI (NCI-H23 lung): 43.9 µM | GI50 (M14 melanoma): 37.6 µM | TGI (M14 melanoma): > 100 µM | GI50 (SF-295 CNS): 40.1 µM | TGI (SF-295 CNS): > 100 µM
